Results as given in US11400058B2, “Intravenous formulations of coenzyme Q10 (CoQ10) and methods of use thereof” (Berg LLC, priority 2010, dated 2022).
Read-outs that look alike come from different tables or passages of the source. Marks after values point to notes of the source that are not given here.

Legend:
[1] = Sprague Dawley, rat, in vivo, iv
Protocol: In the second rat toxicity study, Charles River Study Number 20000328, CoQ10 was administered as short intravenous infusions at the rate of 1.0 mL/min three times a week for four weeks. For the toxicokinetic evaluation, three groups of nine male and nine females received 62.5, 125, and 250 mg/kg CoQ10 IV Formulation (Table 20). On Days 1 and 26, samples were collected from subgroups of three males and three females at 5 and 15 minutes, and at 1, 4, 24 and 48 hr post-dose.
4-Week Repeat-Dose Toxicology Study of CoQ10 IV Formulation In Rats: Four groups of young adult Sprague Dawley rats (n=10/sex/group) received the vehicle (PBS containing Poloxamer 188 and DMPC) or the test article at doses of 0, 62.5, 125 and 250 mg/kg by IV injection three times per week (Charles River Laboratories Study Number 20000328; Table 26). An additional 5 rats/sex were included in each group and were maintained after treatment for a 2-week recovery period. […] The vehicle was administered at the same dose volume as the high-dose group. Additionally, three groups of 9 animals/sex served as toxicokinetic (TK) animals and received the test article in the same manner as the main study groups. […] Blood samples for determination of the plasma concentrations of the test article were collected from cohorts of three TK animals per sex per dose group at 5, 15 and 60 minutes and at 4, 24 and 48 hours after dosing on Days 1 and 28 (after the last dose).

in vivo = details: beagle, dog, iv
Protocol: In the second dog toxicity study, Charles River Study Number 20000334, CoQ10 IV Formulation was administered as short intravenous infusions at the rate of 5.0 mL/min three times a week for four weeks.
An additional two dogs/sex were included in each group and maintained for a 2-week recovery after treatment. A single test article concentration of 40 mg/mL was provided for use on the study. […] Parameters evaluated included cageside observations, clinical observations, body weight, food consumption, ophthalmoscopy, electrocardiography, clinical pathology, gross pathology, organ weights, and histopathology. Blood samples for determination of the plasma concentrations of CoQ10 IV Formulation were collected pre-dose and at 5, 15, 30 and 60 minutes and at 2, 4, 8 and 24 hours post-dose on Days 1 and 26.

[2] = 4-week repeat-dose study in dogs with 2-week recovery (Study 20000334); details: for Died or Sacrificed Moribund: animals of 5;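 for all read-outs here: endpoints monitored covered cageside and clinical observations, body weight, gross pathology, clinical pathology, histopathology and organ weights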
Protocol: An additional two dogs/sex were included in each group and maintained for a 2-week recovery after treatment. A single test article concentration of 40 mg/mL was provided for use on the study. […] Parameters evaluated included cageside observations, clinical observations, body weight, food consumption, ophthalmoscopy, electrocardiography, clinical pathology, gross pathology, organ weights, and histopathology.

[3] = 31.25 mg/kg F, end of dosing, animals of 3
[4] = 31.25 mg/kg F, end of recovery, animals of 2
[5] = 31.25 mg/kg M, end of dosing, animals of 3
[6] = 31.25 mg/kg M, end of recovery, animals of 2
[7] = 62.5 mg/kg F, end of dosing, animals of 3
[8] = 62.5 mg/kg F, end of recovery, animals of 2
[9] = 62.5 mg/kg M, end of dosing, animals of 3
[10] = 62.5 mg/kg M, end of recovery, animals of 2
[11] = 125 mg/kg F, end of dosing, animals of 3
[12] = 125 mg/kg F, end of recovery, animals of 2
[13] = 125 mg/kg M, end of dosing, animals of 3
[14] = 125 mg/kg M, end of recovery, animals of 2

For `COC1=C(OC)C(=O)C(C/C=C(\C)CC/C=C(\C)CC/C=C(\C)CC/C=C(\C)CC/C=C(\C)CC/C=C(\C)CC/C=C(\C)CC/C=C(\C)CC/C=C(\C)CCC=C(C)C)=C(C)C1=O` [CoQ10, Coenzyme Q10], the AUC0-t ([1]; female, 62.5 mg/kg) was 1747 µg·h/mL, the AUC0-t ([1]; female, 125 mg/kg) was 3859 µg·h/mL and the AUC0-t ([1]; female, 250 mg/kg) was 8368 µg·h/mL. It also gave an AUC0-t ([1]; male, 62.5 mg/kg) of 1953 µg·h/mL, an AUC0-t ([1]; male, 125 mg/kg) of 5037 µg·h/mL and an AUC0-t ([1]; male, 250 mg/kg) of 8873 µg·h/mL. It also gave an AUC0-t (in vivo; female, 31.25 mg/kg) of 1220 µg·h/mL, an AUC0-t (in vivo; female, 62.5 mg/kg) of 2920 µg·h/mL and an AUC0-t (in vivo; female, 125 mg/kg) of 12500 µg·h/mL. It also gave an AUC0-t (in vivo; male, 31.25 mg/kg) of 1130 µg·h/mL, an AUC0-t (in vivo; male, 62.5 mg/kg) of 3350 µg·h/mL and an AUC0-t (in vivo; male, 125 mg/kg) of 12800 µg·h/mL. The “Died or Sacrificed Moribund” value ([2]; 31.25 mg/kg F) was 0, the “Body Weight, percent difference from controls” value (“Body Weight, percent difference” for short) ([2]; 31.25 mg/kg F, end of dosing) was “+4.7%” and the Reticulocytes ([2]; 31.25 mg/kg F, end of dosing) was 3.67e+10 L⁻¹. The “Gross Pathology: Pale Liver” value [2, 3] was 0, the “Liver Glycogen Accum.” value [2, 3] was 2 and the “Liver Glycogen Accum., Mild” value [2, 3] was 0. For the same molecule, the “Liver Glycogen Accum., Minimal” value [2, 3] was 2, the “Body Weight, percent difference” value ([2]; 31.25 mg/kg F, end of recovery) was “+10.9%” and the Reticulocytes ([2]; 31.25 mg/kg F, end of recovery) was 63.4 109/L. For the same molecule, the “Gross Pathology: Pale Liver” value [2, 4] was 0, the “Liver Glycogen Accum.” value [2, 4] was 0 and the “Liver Glycogen Accum., Mild” value [2, 4] was 0. For the same molecule, the “Liver Glycogen Accum., Moderate” value [2, 4] was 0, the “Died or Sacrificed Moribund” value ([2]; 31.25 mg/kg M) was 0 and the “Body Weight, percent difference” value ([2]; 31.25 mg/kg M, end of dosing) was “+3.3%”. The Reticulocytes ([2]; 31.25 mg/kg M, end of dosing) was 4.87e+10 L⁻¹, the “Gross Pathology: Pale Liver” value [2, 5] was 0 and the “Liver Glycogen Accum.” value [2, 5] was 3. For the same molecule, the “Liver Glycogen Accum., Mild” value [2, 5] was 1, the “Liver Glycogen Accum., Minimal” value [2, 5] was 2 and the “Body Weight, percent difference” value ([2]; 31.25 mg/kg M, end of recovery) was “+4.7%”. For the same molecule, the Reticulocytes ([2]; 31.25 mg/kg M, end of recovery) was 71.6 109/L, the “Gross Pathology: Pale Liver” value [2, 6] was 0 and the “Liver Glycogen Accum.” value [2, 6] was 0. For the same molecule, the “Liver Glycogen Accum., Mild” value [2, 6] was 0, the “Liver Glycogen Accum., Moderate” value [2, 6] was 0 and the “Died or Sacrificed Moribund” value ([2]; 62.5 mg/kg F) was 0. The “Body Weight, percent difference” value ([2]; 62.5 mg/kg F, end of dosing) was “+4.2%”, the Reticulocytes ([2]; 62.5 mg/kg F, end of dosing) was 5.2e+10 L⁻¹ and the “Gross Pathology: Pale Liver” value [2, 7] was 3. The “Liver Glycogen Accum.” value [2, 7] was 3, the “Liver Glycogen Accum., Mild” value [2, 7] was 1 and the “Liver Glycogen Accum., Minimal” value [2, 7] was 2. The “Body Weight, percent difference” value ([2]; 62.5 mg/kg F, end of recovery) was “+5.1%”, the Reticulocytes ([2]; 62.5 mg/kg F, end of recovery) was 50.8 109/L and the “Gross Pathology: Pale Liver” value [2, 8] was 1. For the same molecule, the “Liver Glycogen Accum.” value [2, 8] was 1, the “Liver Glycogen Accum., Mild” value [2, 8] was 0 and the “Liver Glycogen Accum., Moderate” value [2, 8] was 1. The “Died or Sacrificed Moribund” value ([2]; 62.5 mg/kg M) was 0, the “Body Weight, percent difference” value ([2]; 62.5 mg/kg M, end of dosing) was 0.0% and the Reticulocytes ([2]; 62.5 mg/kg M, end of dosing) was 6.8e+10 L⁻¹. For the same molecule, the “Gross Pathology: Pale Liver” value [2, 9] was 3, the “Liver Glycogen Accum.” value [2, 9] was 3 and the “Liver Glycogen Accum., Mild” value [2, 9] was 3. For the same molecule, the “Liver Glycogen Accum., Minimal” value [2, 9] was 0, the “Body Weight, percent difference” value ([2]; 62.5 mg/kg M, end of recovery) was −1.4% and the Reticulocytes ([2]; 62.5 mg/kg M, end of recovery) was 85.4 109/L. The “Gross Pathology: Pale Liver” value [2, 10] was 1, the “Liver Glycogen Accum.” value [2, 10] was 1 and the “Liver Glycogen Accum., Mild” value [2, 10] was 1. The “Liver Glycogen Accum., Moderate” value [2, 10] was 0, the “Died or Sacrificed Moribund” value ([2]; 125 mg/kg F, moribund sacrificed on Day 36 (Week 2 of recovery)) was 1^c and the “Body Weight, percent difference” value ([2]; 125 mg/kg F, end of dosing) was −1.0%. The Reticulocytes ([2]; 125 mg/kg F, end of dosing) was 160.69 109/L, the “Gross Pathology: Pale Liver” value [2, 11] was 3 and the “Liver Glycogen Accum.” value [2, 11] was 3. For the same molecule, the “Liver Glycogen Accum., Mild” value [2, 11] was 1, the “Liver Glycogen Accum., Minimal” value [2, 11] was 2 and the “Body Weight, percent difference” value ([2]; 125 mg/kg F, end of recovery) was −1.0%. The Reticulocytes ([2]; 125 mg/kg F, end of recovery) was 53.6 109/L, the “Gross Pathology: Pale Liver” value [2, 12] was 2 and the “Liver Glycogen Accum.” value [2, 12] was 2. The “Liver Glycogen Accum., Mild” value [2, 12] was 1, the “Liver Glycogen Accum., Moderate” value [2, 12] was 1 and the “Died or Sacrificed Moribund” value ([2]; 125 mg/kg M) was 0. The “Body Weight, percent difference” value ([2]; 125 mg/kg M, end of dosing) was “+1.2%”, the Reticulocytes ([2]; 125 mg/kg M, end of dosing) was 190.6 109/L and the “Gross Pathology: Pale Liver” value [2, 13] was 3. For the same molecule, the “Liver Glycogen Accum.” value [2, 13] was 3, the “Liver Glycogen Accum., Mild” value [2, 13] was 3 and the “Liver Glycogen Accum., Minimal” value [2, 13] was 0. For the same molecule, the “Body Weight, percent difference” value ([2]; 125 mg/kg M, end of recovery) was “+7.9%”, the Reticulocytes ([2]; 125 mg/kg M, end of recovery) was 131.1 109/L and the “Gross Pathology: Pale Liver” value [2, 14] was 2. For the same molecule, the “Liver Glycogen Accum.” value [2, 14] was 2, the “Liver Glycogen Accum., Mild” value [2, 14] was 1 and the “Liver Glycogen Accum., Moderate” value [2, 14] was 1.
